Assay results reported in patent publication US20080260720A1, “Systems and Methods for Inhibiting Metastasis” (priority 2004, published 2008).

Tests used:
Format in all cases: cell-based
[1] = tested on: MB-MDA-435 breast cancer cells expressing E-cadherin; assay: Wound-filling (cell migration) assay, G12-stimulated cell escape; conditions: MB-MDA-435 cells with E-cadherin and mutationally-activated Gα12; free-migrating cells 39 h after wounding
Protocol: To determine whether G12 proteins could influence cadherin-mediated suppression of cell migration, wound-filling assays using MB-MDA-435 breast cancer cells expressing E-cadherin were conducted. This system is believed to mimic the escape of potentially metastatic cells from the primary tumor. When a monolayer of cells was wounded by scraping, MB-MDA-435 cells lacking E-cadherin (435-puro) frequently broke free from the advancing “wall” of cells and migrated into the wound area as lone or “free migrating” cells.
Wound-filling assays were performed using MB-MDA-435 cells harboring E-cadherin (435-E-cad) or a control plasmid (435-puro), that were infected 40 h earlier with recombinant adenoviruses expressing either mutationally-activated Gα12 (12^QL) or mutationally-activated Gαi2 (control). Cells were visualized by fluorescence microscopy for GFP expression (indicative of successful adenovirus infection). Cells were photographed at time of initial wounding, performed by scraping cell monolayers with a pipette tip and marling the wounded areas for orientation. Marked areas were re-photographed 39 h after wounding (lower panels). […] Data from 5 randomly selected view fields are presented as mean ±S.E. for each condition. E-cadherin lacking the G12-interacting region fails to suppress cell migration. […]

MB-MDA-231 cell line = assay: Matrigel invasion assay, MB-MDA-231; conditions: 50 nM thrombin, 24 hrs, MB-MDA-231 cells, Cyquant quantification
Protocol: (§1) To examine the role of G12/13 in breast cancer invasion, the Matrigel (BD biosciences) invasion assay was used. In this assay, transwell migration chambers are coated with Matrigel, an artificial extracellular matrix believed to closely resemble basal lamina in structure and content. Cells are then plated on top of this matrix and allowed to invade the matrigel and migrate to the underside of the membrane. The cells that reach the underside of the membrane are then quantified as a measure of invasiveness. This system serves as a model for primary tumor invasion, as the matrix mimics the microenvironment through which the cancer cells must pass in order to metastasize.
(§2) MB-MDA-231 and MCF-7 cells were plated on top of a Matrigel (BD Biosciences) coated polycarbonate filter (8.0 μM pore). The filter was transferred to a chamber containing 0.1% BSA-DMEM and the cells were allowed to adhere for 1 hr. The cells were then stimulated with 50 nM thrombin. After 24 hrs, the cells were detached from the underside of the filter and quantified using the Cyquant (Molecular Probes) cell enmieration kit. […] Using retrovirus, stable MB-MDA-231 cell lines expressing p115RGS, RGS2 (see text) or the appropriate vector control were generated. Invasion assays were then preformed as in (a) using these cells.

MCF-7 cell line = assay: Matrigel invasion assay, MCF-7; conditions: 50 nM thrombin, 24 hrs, MCF-7 cells, Cyquant quantification
Protocol: as §1, §2

C[C@@H](N)[C@H]1CC[C@H](C(=O)Nc2ccncc2)CC1 [Y27632]
effect on the G12-stimulated cell escape [1]: no effect

thrombin
invasion through Matrigel (MB-MDA-231 cell line): stimulates invasion | invasion through Matrigel (MCF-7 cell line): not
